Test results: patent US12421222B2 (AUGUSTINE THERAPEUTICS, priority 2021, dated 2025)

Each molecule was assayed on acetylated tubulin (Lys40) in HeLa cells (assay: Acetylated α-tubulin measurement in vitro (immunocytochemistry)). Conditions: Homo sapiens, 6 hours incubation, acetylated tubulin (Lys40) by immunocytochemistry, read-out: IC50 (Tubulin deacetylation).
Assay type: cell-based
Method: HeLa cells were cultured in UltraCulture serum-free medium (Lonza) supplemented with 2 mM glutamine (Lonza). Assays were performed at 96-well or 384-well format, differences in assay protocols are detailed in Table 6. Cells per well were plated and incubated overnight at 37° C. overnight in a humidified atmosphere containing 5% CO2. Cell density and seeding volumes are detailed in Table 6. Compounds (dissolved in 100% DMSO) or DMSO (vehicle) were added manually by diluting them in culture medium at 10× final assay concentration and adding 10 μL to cells (96-well protocol). Alternatively, 50 nL compound was added directly to the cell culture using the Echo650 (Labcyte) (384-well protocol). In this assay, the final assay concentration of DMSO is 0.1%-0.4%. Trichostatin A (TSA) was used as a positive control. Cells were incubated with compounds at 37° C. in a humidified atmosphere containing 5% CO2 for 6 hours. Levels of acetylated tubulin (Lys40) were assessed by immunocytochemistry using target-specific antibodies. Cells were fixed with 4% PFA at RT as detailed in Table 6. After 2-3 wash steps with PBS, cells were permeabilized with 0.5% Triton in PBS at RT for 10 minutes followed by 1-2 washes with PBS. To avoid non-specific antibody staining, cells were blocked with 3% BSA in PBS at room temperature for 1 hour. […] Cells were washed 2-3 times with PBS and labelled for 1 h at RT with goat anti-mouse conjugated with Alexa 647 (Thermofisher) and goat anti-rabbit conjugated with Alexa 555 (Thermofisher) secondary antibodies, diluted in 1% BSA to a final concentration of 1:1000. Simultaneously, nuclei were stained with 1:10000-1:15000 Hoechst (Thermofisher). Incubation time and temperature of the primary antibodies are detailed in Table 6. Cells were washed 2-3 times with PBS and they were imaged with the Operetta CLS or Opera Phenix (PerkinElmer). Imaging is further detailed in Table 6. For imaging analysis, the Harmony analysis software (PerkinElmer) was used. Cytoplasmic (defined by total α-tubulin staining) intensities per well were used for α-tubulin (acetylated and total) quantification. Intensities were measured per cell and then averaged per well. Mean intensity levels of acetylated tubulin were normalized to the mean intensity levels of total tubulin. The changes in acetylated tubulin were normalized for each plate using GraphPad Prism software: tubulin acetylation in vehicle (DMSO)-treated cells were set to 0% while tubulin acetylation in TSA-treated cells were set to 100%. EC50 values were calculated using the log(inhibitor) vs. response—Variable slope (four parameters) nonlinear regression in GraphPad Prism software.

Row | SMILES | IC50 [nM]
1 | O=C(CO)NCc1ccc(C(=O)CSc2nc(C(F)(F)F)nc3c2cnn3C2CC2)s1 [Example 133, N-((5-(2-((1-cyclopropyl-6-(trifluoromethyl)-1H-pyrazolo[3,4-d]pyrimidin-4-yl)thio)acetyl)thiophen-2-yl)methyl)-2-hydroxyacetamide] | 100 to 500
2 | CCc1nc(SCC(=O)c2ccc(CNC(=O)CO)s2)c2ccccc2n1 [Example 62, N-((5-(2-((2-ethylquinazolin-4-yl)thio)acetyl)thiophen-2-yl)methyl)-2-hydroxyacetamide] | 100 to 500
3 | Cn1ncc2c(SCC(=O)c3cc(F)c(CNC(=O)C(C)(C)C)s3)ncnc21 [Example 28, N-((3-fluoro-5-(2-((1-methyl-1H-pyrazolo[3,4-d]pyrimidin-4-yl)thio)acetyl)thiophen-2-yl)methyl)pivalamide] | 1000 to 3330
4 | CN(Cc1ccc(C(=O)CSc2nc(C(F)(F)F)nc3nn(C)cc23)s1)C(=O)CO [Example 116, 2-hydroxy-N-methyl-N-((5-(2-((2-methyl-6-(trifluoromethyl)-2H-pyrazolo[3,4-d]pyrimidin-4-yl)thio)acetyl)thiophen-2-yl)methyl)acetamide] | 100 to 500
5 | Cn1cc2c(SCC(=O)c3ccc(CNC(=O)C(O)C(F)(F)F)s3)nc(C(F)(F)F)nc2n1 (centres unmarked) [Example 46, 3,3,3-trifluoro-2-hydroxy-N-((5-(2-((2-methyl-6-(trifluoromethyl)-2H-pyrazolo[3,4-d]pyrimidin-4-yl)thio)acetyl)thiophen-2-yl)methyl)propanamide] | 100 to 500
6 | Cn1ncc2c(SCC(=O)c3ccc(CNC(=O)CO)s3)nc(C(F)(F)F)nc21 [Example 74, 2-hydroxy-N-((5-(2-((1-methyl-6-(trifluoromethyl)-1H-pyrazolo[3,4-d]pyrimidin-4-yl)thio)acetyl)thiophen-2-yl)methyl)acetamide] | 100 to 500
7 | CNc1cc(C(F)(F)F)cc2c(SCC(=O)c3ccc(CNC(=O)CO)s3)nc(C)nc12 [Example 151, 2-hydroxy-N-((5-(2-((2-methyl-8-(methylamino)-6-(trifluoromethyl)quinazolin-4-yl)thio)acetyl)thiophen-2-yl)methyl)acetamide] | 1000 to 3330
8 | O=C(CO)NCc1ccc(C(=O)CSc2nc3cc(C(F)(F)F)ncc3o2)s1 [Example 71, 2-hydroxy-N-((5-(2-((6-(trifluoromethyl)oxazolo[5,4-c]156yrrolid-2-yl)thio)acetyl)thiophen-2-yl)methyl)acetamide] | ≤ 100
9 | O=C(CSc1nc(C(F)(F)F)nc2ncccc12)c1ccc(CN2CCOCC2=O)s1 [Example 138, 4-((5-(2-((2-(trifluoromethyl)pyrido[2,3-d]pyrimidin-4-yl)thio)acetyl)thiophen-2-yl)methyl)morpholin-3-one] | 100 to 500
10 | CC(C)(C)C(=O)NCc1ccc(C(=O)CSc2nc(C(F)(F)F)nc3ccccc23)s1 [Example 38, N-((5-(2-((2-(trifluoromethyl)quinazolin-4-yl)thio)acetyl)thiophen-2-yl)methyl)pivalamide] | 500 to 1000
11 | O=C(CSc1nc(C(F)(F)F)nc2ccccc12)c1ccc(CCNC(=O)C2CC2)s1 [Example 36, N-(2-(5-(2-((2-(trifluoromethyl)quinazolin-4-yl)thio)acetyl)thiophen-2-yl)ethyl)cyclopropanecarboxamide] | > 3330
12 | CC(C)(C)C(=O)NCc1ccc(C(=O)CSc2nc(C(F)F)nc3ccccc23)s1 [Example 19, N-((5-(2-((2-(difluoromethyl)quinazolin-4-yl)thio)acetyl)thiophen-2-yl)methyl)pivalamide] | 1000 to 3330
13 | Cn1cc2c(SCC(=O)c3ccc(CNC(=O)C4CC4(F)F)s3)nc(C(F)(F)F)nc2n1 (centres unmarked) [Example 111, 2,2-difluoro-N-((5-(2-((2-methyl-6-(trifluoromethyl)-2H-pyrazolo[3,4-d]pyrimidin-4-yl)thio)acetyl)thiophen-2-yl)methyl)cyclopropane-1-carboxamide] | 100 to 500
14 | CN(Cc1ccc(C(=O)CSc2ncnc3c2cnn3C)s1)S(=O)(=O)C1CC1 [Example 91, N-methyl-N-((5-(2-((1-methyl-1H-pyrazolo[3,4-d]pyrimidin-4-yl)thio)acetyl)thiophen-2-yl)methyl)cyclopropanesulfonamide] | > 3330
15 | COc1cc2c(SCC(=O)c3ccc(CN(C)C(=O)CO)s3)nc(C(F)(F)F)nc2cn1 [Example 159, 2-hydroxy-N-((5-(2-((6-methoxy-2-(trifluoromethyl)pyrido[3,4-d]pyrimidin-4-yl)thio)acetyl)thiophen-2-yl)methyl)-N-methylacetamide] | ≤ 100
16 | Cc1nc(SCC(=O)c2ccc(CNC(=O)CO)s2)c2cc(C(F)(F)F)cc(N(C)C)c2n1 [Example 150, N-((5-(2-((8-(dimethylamino)-2-methyl-6-(trifluoromethyl)quinazolin-4-yl)thio)acetyl)thiophen-2-yl)methyl)-2-hydroxyacetamide] | 100 to 500
17 | Cc1cc2nc(C(F)(F)F)nc(SCC(=O)c3ccc(CNC(=O)CO)s3)n2n1 [Example 107, 2-hydroxy-N-((5-(2-((7-methyl-2-(trifluoromethyl)pyrazolo[1,5-a][1,3,5]triazin-4-yl)thio)acetyl)thiophen-2-yl)methyl)acetamide] | 100 to 500
18 | Cc1nc(SCC(=O)c2ccc(CNC(=O)C3CC3(F)F)s2)c2cccnc2n1 (centres unmarked) [Example 110, 2,2-difluoro-N-((5-(2-((2-methylpyrido[2,3-d]pyrimidin-4-yl)thio)acetyl)thiophen-2-yl)methyl)cyclopropane-1-carboxamide] | ≤ 100
19 | CN(Cc1ccc(C(=O)CSc2ncnc3c2cnn3C)s1)C(=O)C1CC1 [Example 34, N-methyl-N-((5-(2-((1-methyl-1H-pyrazolo[3,4-d]pyrimidin-4-yl)thio)acetyl)thiophen-2-yl)methyl)cyclopropanecarboxamide] | 1000 to 3330
20 | COc1ccc2nc(C)nc(SCC(=O)c3ccc([C@H](C)NC(=O)CO)s3)c2c1 [Example 128, (S)-2-hydroxy-N-(1-(5-(2-((6-methoxy-2-methylquinazolin-4-yl)thio)acetyl)thiophen-2-yl)ethyl)acetamide] | 100 to 500

Continued, values first:

Row | IC50 [nM] | SMILES
21 | ≤ 100 | Cc1nc(SCC(=O)c2ccc(CNC(=O)CO)s2)c2cc(C(F)(F)F)ccc2n1 [Example 76, 2-hydroxy-N-((5-(2-((2-methyl-6-(trifluoromethyl)quinazolin-4-yl)thio)acetyl)thiophen-2-yl)methyl)acetamide]
22 | ≤ 100 | COc1ccc2nc(C)nc(SCC(=O)c3ccc(CNC(=O)[C@@H](C)O)s3)c2c1 [Example 186, (R)-2-hydroxy-N-((5-(2-((6-methoxy-2-methylquinazolin-4-yl)thio)acetyl)thiophen-2-yl)methyl)propanamide]
23 | ≤ 100 | COc1ccc2nc(C)nc(SCC(=O)c3ccc(CNC(=O)C4CN(C)C4)s3)c2c1 [Example 178, N-((5-(2-((6-methoxy-2-methylquinazolin-4-yl)thio)acetyl)thiophen-2-yl)methyl)-1-methylazetidine-3-carboxamide]
24 | 100 to 500 | COc1ccc2nc(C(F)F)nc(SCC(=O)c3ccc(CNC(=O)CO)s3)c2c1 [Example 139, N-((5-(2-((2-(difluoromethyl)-6-methoxyquinazolin-4-yl)thio)acetyl)thiophen-2-yl)methyl)-2-hydroxyacetamide]
25 | 100 to 500 | COc1cnc2nc(C)nc(SCC(=O)c3ccc(CNC(=O)CO)s3)c2c1 [Example 140, 2-hydroxy-N-((5-(2-((6-methoxy-2-methylpyrido[2,3-d]pyrimidin-4-yl)thio)acetyl)thiophen-2-yl)methyl)acetamide]
26 | 100 to 500 | COc1ccc2nc(C)nc(SCC(=O)c3ccc(CNC(=O)CO)s3)c2c1F [Example 158, N-((5-(2-((5-fluoro-6-methoxy-2-methylquinazolin-4-yl)thio)acetyl)thiophen-2-yl)methyl)-2-hydroxyacetamide]
27 | 100 to 500 | Cc1nc(SCC(=O)c2ccc(CNC(=O)CO)s2)c2cc(F)ccc2n1 [Example 67, N-((5-(2-((6-fluoro-2-methylquinazolin-4-yl)thio)acetyl)thiophen-2-yl)methyl)-2-hydroxyacetamide]
28 | 1000 to 3330 | Cc1nc(SCC(=O)c2ccc(CNC(=O)C(C)(C)C)s2)c2cc(F)ccc2n1 [Example 9, N-((5-(2-((6-fluoro-2-methylquinazolin-4-yl)thio)acetyl)thiophen-2-yl)methyl)pivalamide]
29 | 100 to 500 | COc1ccc2nc(C)nc(SCC(=O)c3ccc(CNC(=O)C4CCCO4)s3)c2c1 (centres unmarked) [Example 171, N-((5-(2-((6-methoxy-2-methylquinazolin-4-yl)thio)acetyl)thiophen-2-yl)methyl)tetrahydrofuran-2-carboxamide]
